Series [1] concerns Cryptococcus neoformans No. 3465. Kind of series: Antifungal activity, culture growth with pH indicator. Details: key: (−) No growth; the indicator is blue; (±) Weak growth; the indicator is yellow, but the precipitate of grown cells looks as a diffuse spot; (+) Strong growth; the indicator is yellow, and the cell precipitate looks as a compact spot. Format: cell-based. How it is done:
(§1) The subjects of action were Cryptococcus neoformans No. 3465 museum strain cells and Candida albicans No. 927 museum strain cells grown for one day on a glucose-peptone-yeast medium at 32° C. The reference compounds were the following antimycotics: pimafucin, amphotericin, and fluconazole.
(§2) Experiments were carried out on round-bottomed 96-well plates (Lenmedpolimer) in two replicas. To the first column (0), added was 10 μL of the stock solution of a water-soluble agent with concentrations of 10^−2 to 10^−3 mol/L; to the second column, added was also the same 10 μL plus 10 μL of the solvent corresponding to the given compound, suspended, 10 μL was transferred to the next well, and so on to the 8th well of the row. Stock solutions of water-insoluble compounds of general formula (I) (compounds V, VIII, XII, XIII, XIV, and hemin) were prepared in DMSO and were diluted with DMSO and the medium. DMSO concentrations in the reaction mixture in a well were ≦5%.
(§3) Then, to every well added was 190 μL of a Cr. neoformans cell culture suspension in a synthetic nutritional medium (so that the final cell concentration was approximately 10^3 CFU/mL), this medium containing Bromocresol Blue as a pH-indicator (pH: 5.5; indicator color: blue). As pH reduced to 4.5, the indicator in the culture changed its color to yellow, thereby indicating fungal cell growth. The synthetic medium comprised the following components: salts, amino acids, microelements, vitamins, an antibiotic, and glucose (30 components altogether) [Yarrow, D., “Methods for the Isolation, Maintenance and Identification of Yeasts,” in: The Yeasts. A Taxonomic Study, Ed. by Kurtsman, C. P, and Fell, M., Elsevier, 1998, pp. 77-100]. After being inoculated with a Cr. neoformans cell suspension, the plate was incubated at 32° C. for 1 h with stirring, then transferred to a stationary thermostat and incubated for two and five days at 27° C. After being inoculated with a C. albicans cell suspension, the plates were incubated for 1 h at 32° C. with stirring, then transferred to a stationary thermostat and incubated for one and four days at 27° C.

A further series concerns human leukocytes. Kind of series: Cytotoxic activity against human leukocytes. Particulars: for toxic effect on human blood leukocytes (in words): concentrations of up to 1 mM, 3 h. The procedure:
Total leukocytes were isolated from human blood by unforced sedimentation using freshly collected venous blood from a healthy donor.
Blood (10 mL) added with 10 units/mL heparin was exposed for 2.5 h in the dark at a temperature of 15 to 18° C. A light-colored liquid supernatant (4 mL) was collected over the layer of sedimenting erythrocytes, washed three times with balanced Hanks's salt solution, and resuspended in the RPMI-1640 medium (added with 8% fetal bovine serum, 2 mM L-glutamine, and 10 mM HEPES; hereinafter, the complete medium).
The concentrations of leukocytes and erythrocytes in the suspension were determined by counts in Goryachev's chamber, after which the suspension was adjusted to a leukocyte concentration of (1.0±0.1)×10^6 cells/mL with the complete medium.
To determine the cytotoxicity of the tested compounds for human leukocytes, the cell suspension was transferred to wells of sterile 96-well plates, tested compounds were added with serial twofold dilutions (the range of tested concentrations was from 3.2 to 100 μM for GrD and gramicidin S; from 8 to 500 μM for compound XIII; and from 8 to 1000 μM for compounds V, VI, VII, VIII, IX, X, XI, XIV, XV, XIX, and Hem), and the mixture was carefully stirred. The experiment was performed in two replicas.
As controls served cells added with an equivalent amount of the solvent in which tested compounds were prepared, namely: water for compounds VII and X; an aqueous solution of DMSO for compounds V, VI, VIII, and IX; and DMSO for GrD, gramicidin S, Hem, XI, XIII, XIV, XV, and XIX. An additional control was an additive-free leukocyte suspension.
Cells were incubated with tested compounds for 3 h (37° C., 5% CO2, 100% humidity). Leukocyte death values were quantified using fluorescence microscopy. Staining with propidium iodide (it permeates only into dead cells nuclei) and Hoechst 33342 (it stains all nuclei) was used to recognize dead and living cells. Cells were incubated for 15 min in plates with propidium iodide and Hoechst 33342 (37° C., 5% CO2), and then the plates were placed under a microscope for analysis.
The dead cell fraction was derived from the fluorescence images of cells obtained in the blue (Hoechst 33342) and red (propidium iodide) spectral ranges using an Axio Observer (Zeiss, Germany) fluorescence microscope equipped with a 10× objective lens (Plan-Neofluar 10×/0.3). The following sets of fluorescence filters were used. For propidium iodide: a 530/585-nm bandpass excitation filter, a 600-nm cut-off dichroic minor, and a 615-nm longpass barrier filter for analysis. For Hoechst 33342: a 359/372-nm bandpass excitation filter, a 395-nm cut-off dichroic mirror, and a 397-nm longpass barrier filter for analysis.
A digital camera recorded three types of cell images: (a) an image in the transmitted white light; (b) a blue fluorescence image obtained with UV excitation, and (c) a red fluorescence image obtained with green light excitation. At least four fields of view were photographed per well in various regions of a well.

A further series concerns Candida albicans No. 927. Kind of series: Antifungal activity, culture growth with pH indicator. Format: cell-based. Details: key to Test culture growth at various dilutions of the agent: (−) No growth; the indicator is blue; (±) Weak growth; the indicator is yellow, but the precipitate of grown cells looks as a diffuse spot; (+) Strong growth; the indicator is yellow, and the cell precipitate looks as a compact spot. How it is done:
as §1, §2, §3

The mark [2] stands for this setting: dilution : 16 of 5.00 × 10^−4 M.
Where [3] appears, read: dilution : 32 of 5.00 × 10^−4 M.
[4] abbreviates: dilution : 64 of 5.00 × 10^−4 M.
Where [5] appears, read: dilution : 128 of 5.00 × 10^−4 M.

Non-standard residues stand in square brackets, D forms with d. Residues, ends and D or L forms follow the SMILES beside them. Orn = NCCC[C@H](N)C(=O)O

Take `C[C@@H]1[C@H](O)[C@@H](C)/C=C/C=C/C=C/C=C/C=C/C=C/C=C/[C@H](O[C@@H]2O[C@H](C)[C@@H](O)[C@H](N)[C@@H]2O)C[C@@H]2O[C@](O)(C[C@@H](O)C[C@@H](O)[C@H](O)CC[C@@H](O)C[C@@H](O)CC(=O)O[C@H]1C)C[C@H](O)[C@H]2C(=O)O` [Amphotericin B, reference compound]: the “Test culture growth at various dilutions of the agent on day 2” value (“Test culture growth … on day 2” for short) is “−**” in series [1] (dilution 0: 5.00 × 10^−4 M); “−” in series [1] (dilution : 2 of 5.00 × 10^−4 M); “−” in series [1] (dilution : 4 of 5.00 × 10^−4 M); “−” in series [1] (dilution : 8 of 5.00 × 10^−4 M); “−” in series [1] (setting [2]); “−” in series [1] (setting [3]). Also, the “Test culture growth … on day 2” value in series [1] (setting [4]) and in series [1] (setting [5]) was “−” each time.

For the compound `C=CC1=C(C)c2cc3[n-]c(cc4nc(cc5[n-]c(cc1n2)c(C)c5CCC(=O)NCCC(=O)N[C@@H](Cc1c[nH]cn1)C(=O)O)C(CCC(=O)NCCC(=O)N[C@@H](Cc1c[nH]cn1)C(=O)O)=C4C)c(C)c3C=C.[Cl-].[Fe+3]` [Compound X], in the series with human leukocytes (1 mM, 3 h incubation), the “Death of leukocytes in the presence of 1 mM of compound” value was determined as 4.9 ± 0.3%. Moreover, the “toxic effect on human blood leukocytes (in words)” value in the series with human leukocytes was “did not cause the death”.

Take `OC(Cn1cncn1)(Cn1cncn1)c1ccc(F)cc1F` [Fluconazole, reference compound]: the “Test culture growth … on day 2” value in series [1] (dilution 0: 5.00 × 10^−4 M) is reported as “±**”; in series [1] (dilution : 2 of 5.00 × 10^−4 M), “±”; in series [1] (dilution : 4 of 5.00 × 10^−4 M), “±”; in series [1] (dilution : 8 of 5.00 × 10^−4 M) it was “+”; in series [1] (setting [2]), “+”; in series [1] (setting [3]) it was “+”. The “Test culture growth … on day 2” value in series [1] (setting [4]) and in series [1] (setting [5]) was “+” throughout.

As for `CC(C)C[C@@H]1NC(=O)[C@H](CCCN)NC(=O)[C@H](C(C)C)NC(=O)[C@@H]2CCCN2C(=O)[C@@H](Cc2ccccc2)NC(=O)[C@H](CC(C)C)NC(=O)[C@H](CCCN)NC(=O)[C@H](C(C)C)NC(=O)[C@@H]2CCCN2C(=O)[C@@H](Cc2ccccc2)NC1=O` [Gramicidin S, reference compound] (cyclo(L[dF]PV[Orn]L[dF]PV[Orn])), the “toxic effect on human blood leukocytes (in words)” value in the series with human leukocytes is listed as “fully due to the toxic effect of the solvent”.

Turning to `C[C@@H]1C/C=C/C=C/C=C/C=C/[C@H](O[C@@H]2O[C@H](C)[C@@H](O)[C@H](N)[C@@H]2O)C[C@@H]2O[C@](O)(C[C@@H](O)C[C@H]3O[C@@H]3/C=C/C(=O)O1)C[C@H](O)[C@H]2C(=O)O` [Pimafucin, reference compound], the “Test culture growth at various dilutions of the agent” value is recorded as “−” in the series on Candida albicans No. 927 (dilution 0: 1 × 10^−4 M); “−” in the series on Candida albicans No. 927 (dilution : 2 of 1 × 10^−4 M); “−” with Candida albicans No. 927 (dilution : 4 of 1 × 10^−4 M); “−” in the series on Candida albicans No. 927 (dilution : 8 of 1 × 10^−4 M); “−” in the series with Candida albicans No. 927 (dilution : 16 of 1 × 10^−4 M); “+” in the series with Candida albicans No. 927 (dilution : 32 of 1 × 10^−4 M). For the same compound, the “Test culture growth at various dilutions of the agent” value in the series with Candida albicans No. 927 (dilution : 64 of 1 × 10^−4 M) was “+”.

“N^α-[6(7)-(Protohemin IX)-yl]-ArgArgTrpTrpArgPhe-OH ({protohemin IX}-RRWWRF-OH) [Compound XX]”: the “Test culture growth at various dilutions of the agent” value in the series with Candida albicans No. 927 (dilution 0: 1 × 10^−4 M), in the series with Candida albicans No. 927 (dilution : 2 of 1 × 10^−4 M), in the series on Candida albicans No. 927 (dilution : 4 of 1 × 10^−4 M), in the series with Candida albicans No. 927 (dilution : 8 of 1 × 10^−4 M), in the series on Candida albicans No. 927 (dilution : 16 of 1 × 10^−4 M) and with Candida albicans No. 927 (dilution : 32 of 1 × 10^−4 M) was “±” each time. Further, the “Test culture growth at various dilutions of the agent” value in the series on Candida albicans No. 927 (dilution : 64 of 1 × 10^−4 M) is given as “±”.
